Data: patent publication US10538535B2, “Antitumoral compounds” (priority 2017, dated 2020)
Like-named read-outs stand apart in the source and are kept apart here.

Tests used:
[1] = tested on: MDA-MB-231 tumors; settings: iv, 0.5 mg/kg
Procedure: (§1) Female athymic nu/nu mice (Harlan Laboratories Models, S. L. Barcelona, Spain or Envigo, Spain) were utilized for all experiments. Animal were housed in individually ventilated cages Sealsafe® Plus, Techniplast S.P.A.), up to ten per cage on a 12-hour light-dark cycle at 21-23° C. and 40-60% humidity. […] Animals were acclimated for at least 5 days prior to tumor implantation with a tumor cell suspension.
MDA-MB-231 cells were maintained in vitro at 37° C. with 5% CO2 in Dulbecco's Modified Eagle's Medium (Sigma-Aldrich, Co). Culture cells were passaged every 3 to 5 days upon reaching confluence.
(§2) Treatment tolerability was assessed by monitoring body weight evolution, clinical signs of systemic toxicity, as well as evidences of local damage in the injection site.
(§3) In xenograft studies with other cell lines: • Tumor volume was calculated using the equation (a·b^2)/2, where a: length (longest diameter) and b: width (shortest diameter) were measured in mm by using digital caliper (Fowler Sylvac, S235PAT).
(§4) Treatments producing >20% lethality and/or 20% net body weight loss were considered toxic.

[2] = tested on: P388 lymphoma; settings: cited from earlier work
[3] = tested on: B16 melanoma; settings: cited from earlier work
[4] = tested on: Lewis lung carcinoma; settings: cited from earlier work
[5] = tested on: H82 tumors; test: In vivo xenograft, human lung (SCLC) H82; settings: iv weekly, 32 and ET-736 0.5 mg/Kg
Procedure: Female athymic nu/nu mice (Harlan Laboratories Models, S. L. Barcelona, Spain or Envigo, Spain) were utilized for all experiments. Animal were housed in individually ventilated cages Sealsafe® Plus, Techniplast S.P.A.), up to ten per cage on a 12-hour light-dark cycle at 21-23° C. and 40-60% humidity. Mice were allowed free access to irradiated standard rodent diet (Tecklad 2914C) and sterilized water. Animals were acclimated for at least 5 days prior to tumor implantation with a tumor cell suspension.
H82 cells were grown as a suspension and maintained by addition of fresh medium, as the cell density increases, every 2 to 3 days. Every week, culture was reestablished by centrifugation of the suspension with subsequent resuspension in fresh medium at a concentration of 1×10^5 cell/ml. Animals were subcutaneously implanted (on the right flank using 26 G needle and a 1 cc syringe) at 4-6 weeks of age with 5×10^6 H82 cells, suspended in 0.05 mL of a solution consisting of 50% Matrigel® (Corning Incorporated Life Sciences) and 50% medium without serum or antibiotics.
as §2, §3, §4
Tables and figures summarize the data obtained from complete experimental groups, i.e. those groups keeping the initial number of animals, n=8-10.

[6] = tested on: HT1080 tumors; test: In vivo xenograft, human fibrosarcoma HT1080; settings: iv weekly, 32 and ET-736 0.5 mg/Kg
Procedure: as §1
HT1080 cells were maintained in vitro at 37° C. with 5% CO2 in Minimum Essential Medium Eagle (MEME) (Sigma-Aldrich, Co). Each animal was orthotopically implanted into gastroecnemius muscle by an intramuscular injection using a 26 G needle and a 1 cc syringe at 4-6 weeks of age, with 10×10^6 HT1080 cells, suspended in serum free medium, without antibiotics.
as §2
In xenograft studies with HT1080 cell line: • Total diameter (tumor+leg) measurements were determined by using digital caliper (Fowler Sylvac, S235PAT).
as §4

[7] = MTD (Maximum Tolerated Dose) determination, single iv administration; type: in vivo; settings: female, mouse, in vivo; mice; iv/SD
Method in brief: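 Female CD-1 or athymic nude (nu/nu) mice received compound in experimental formulation at various concentrations, or blank formulation, i.v. at 10 mL/kg, once (MTD) or weekly for three weeks (MTMD). Clinical signs of systemic toxicity, body weight and mortality were followed up to 14 days post-dose.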

Row | SMILES | Median Tumor Volume ([1]; 0 h) [mm^3] | Median Tumor Volume ([1]; 48 h) [mm^3] | Median Tumor Volume ([1]; 120 h) [mm^3] | Median Tumor Volume ([1]; 168 h) [mm^3] | Median Tumor Volume ([1]; 336 h) [mm^3] | Median Tumor Volume ([1]; 384 h) [mm^3] | Median Tumor Volume ([1]; 456 h) [mm^3] | Median Tumor Volume ([1]; 504 h) [mm^3] | Median Tumor Volume ([1]; 552 h) [mm^3] | Median Tumor Volume ([1]; 672 h) [mm^3] | Median Tumor Volume ([1]; 720 h) [mm^3] | Median Tumor Volume ([5]; Table 64, Day 0) [mm^3] | Median Tumor Volume ([5]; Table 64, Day 2) [mm^3] | Median Tumor Volume ([5]; Table 64, Day 5) [mm^3] | Median Tumor Volume ([5]; Table 64, Day 7) [mm^3] | Median Tumor Volume ([5]; Table 64, Day 9) [mm^3] | Median Tumor Volume ([5]; Table 64, Day 12) [mm^3] | Median Tumor Volume ([5]; Table 64, Day 14) [mm^3] | Total diameter (tumor + leg) ([6]; Table 60, Day 2) [mm] | Total diameter (tumor + leg) ([6]; Table 60, Day 5) [mm] | also measured
1 | COc1c(C)cc2c(c1O)[C@@H]1[C@@H]3[C@@H]4SC[C@]5(NCCc6c5[nH]c5ccccc65)C(=O)OC[C@@H](c5c6c(c(C)c(OC(C)=O)c54)OCO6)N3[C@@H](O)[C@H](C2)N1C [ET-736, Ecteinascidin 736] | 150.0 | 237.7 | 302.1 | 364.9 | 398.3 | 447.2 | 485.0 | 536.3 | 669.8 | 1046.1 | 1315.9 | 170.0 | 334.4 | 539.4 | 836.4 | 1013.1 | 1290.9 | 1648.0 | 8.3 | 7.1 | Median Tumor Volume ([1]; 840 h): 2007.7 mm^3; protection of mice in vivo [2]: protects mice in vivo at very low concentrations; protection of mice in vivo [3]: protects mice in vivo at very low concentrations; protection of mice in vivo [4]: protects mice in vivo at very low concentrations; Total diameter (tumor + leg) ([6]; Table 60, Day 7): 7.6 mm; Total diameter (tumor + leg) ([6]; Table 60, Day 9): 7.4 mm; Total diameter (tumor + leg) ([6]; Table 60, Day 12): 7.0 mm; Total diameter (tumor + leg) ([6]; Table 60, Day 14): 7.1 mm; Total diameter (tumor + leg) ([6]; Table 60, Day 16): 7.4 mm; Total diameter (tumor + leg) ([6]; Table 60, Day 19): 8.4 mm; Total diameter (tumor + leg) ([6]; Table 60, Day 21): 8.6 mm; Total diameter (tumor + leg) ([6]; Table 60, Day 23): 10.0 mm; Total diameter (tumor + leg) ([6]; Table 60, Day 27): 10.9 mm; Total diameter (tumor + leg) ([6]; Table 60, Day 30): 13.2 mm; Total diameter (tumor + leg) ([6]; Table 60, Day 33): 14.3 mm; Total diameter (tumor + leg) ([6]; Table 60, Day 35): 15.2 mm; Total diameter (tumor + leg) ([6]; Table 60, Day 37): 15.8 mm; Total diameter (tumor + leg) ([6]; Table 60, Day 40): 16.6 mm; Total diameter (tumor + leg) ([6]; Table 60, Day 42): 18.0 mm
2 | COc1c(C)cc2c(c1O)[C@@H]1[C@@H]3[C@@H]4SC[C@]5(NCCc6c5oc5ccccc65)C(=O)OC[C@@H](c5c6c(c(C)c(OC(C)=O)c54)OCO6)N3[C@@H](O)[C@H](C2)N1C [Compound 32] | 150.2 | 233.6 | 310.6 | 386.1 | 560.3 | 649.5 | 853.0 | 1017.5 | 1263.2 | 1726.6 | 1892.6 | 171.6 | 309.4 | 485.0 | 708.4 | 972.6 | 1101.6 | 1339.6 | 8.9 | 8.2 | MTD at 14 days [7]: 0.5 mg/kg; Median Tumor Volume ([5]; Table 64, Day 16): 1430.3 mm^3; Median Tumor Volume ([5]; Table 64, Day 19): 1885.7 mm^3; Total diameter (tumor + leg) ([6]; Table 60, Day 7): 8.8 mm; Total diameter (tumor + leg) ([6]; Table 60, Day 9): 10.0 mm; Total diameter (tumor + leg) ([6]; Table 60, Day 12): 8.8 mm; Total diameter (tumor + leg) ([6]; Table 60, Day 14): 10.8 mm; Total diameter (tumor + leg) ([6]; Table 60, Day 16): 11.8 mm; Total diameter (tumor + leg) ([6]; Table 60, Day 19): 12.0 mm; Total diameter (tumor + leg) ([6]; Table 60, Day 21): 14.0 mm; Total diameter (tumor + leg) ([6]; Table 60, Day 23): 13.8 mm; Total diameter (tumor + leg) ([6]; Table 60, Day 27): 13.6 mm; Total diameter (tumor + leg) ([6]; Table 60, Day 30): 15.5 mm; Total diameter (tumor + leg) ([6]; Table 60, Day 33): 18.0 mm
